Holding throughout (type): functional
The test system of assay [1] is Aspergillus niger. The assay is described as follows: Antifungal activity against Aspergillus niger assessed as growth inhibition at 10 ug/disk. Particulars: read-out: IZ.
For assay [2], the system named is Bacillus subtilis. The assay is described as follows: Antibacterial activity against Bacillus subtilis assessed as growth inhibition at 10 ug/disk. The conditions noted are these: read-out: IZ.
Assay [3] has as its system Rattus norvegicus. The assay is described as follows: Anti-inflammatory activity in Rattus norvegicus Wistar albino (rat) assessed as inhibition of carrageenan-induced paw edema at 10 mg/kg, po relative to untreated control. For orientation: In the carrageenan paw model, swelling and tenderness develop within hours.
The subject of assay [4] is Staphylococcus aureus. Kind of assay: Antibacterial activity against Staphylococcus aureus assessed as growth inhibition at 10 ug/disk. The conditions noted are these: read-out: IZ.
In assay [5] the test system is Candida albicans. Kind of assay: Antifungal activity against Candida albicans assessed as growth inhibition at 10 ug/disk. The conditions noted are these: read-out: IZ.
Assay [6] deals with Pseudomonas aeruginosa. Kind of assay: Antibacterial activity against Pseudomonas aeruginosa assessed as growth inhibition at 10 ug/disk. The conditions noted are these: read-out: IZ.
For assay [7], the system named is Escherichia coli. Kind of assay: Antibacterial activity against Escherichia coli assessed as growth inhibition at 10 ug/disk. Particulars: read-out: IZ.

The inhibition in vivo is how much of the control response was suppressed.

Molecules are shown by their SMILES.

Take `Cc1cccc(OCc2ccccc2-c2nc(CN3CCN(C(c4ccccc4)c4ccccc4)CC3)cs2)c1`: the zone of inhibition at 10 µg/disc in assay [1] was 11 mm; in assay [2], 20 mm; in assay [4], 19 mm; in assay [5], 10 mm; in assay [6] it was 20 mm; in assay [7], 22 mm. In addition, the inhibition in vivo at 10 mg/kg in assay [3] was 64.1%.
As to `Cc1ccccc1OCc1ccccc1-c1nc(-c2ccc([N+](=O)[O-])cc2)cs1`, the zone of inhibition at 10 µg/disc in assay [1] was found to be 14 mm; in assay [2] it was 12 mm; in assay [4], 10 mm; in assay [5] it was 12 mm; in assay [6], 10 mm; in assay [7], 14 mm. In addition, in assay [3], the inhibition in vivo at 10 mg/kg is 46.7%.
Consider `Clc1ccc(OCc2ccccc2-c2nc(-c3cccc(Br)c3)cs2)cc1`, for which the zone of inhibition at 10 µg/disc in assay [1] was found to be 18 mm; in assay [2] it was 20 mm; in assay [4] it was 22 mm; in assay [5] it was 20 mm; in assay [6], 18 mm; in assay [7], 22 mm. The inhibition in vivo at 10 mg/kg in assay [3] amounted to 42.9%.
For the compound `NS(=O)(=O)c1sc(Cl)cc1-c1csc(-c2ccccc2COc2ccc(Cl)cc2)n1`, the zone of inhibition at 10 µg/disc in assay [1] worked out at 24 mm; in assay [2] it was 28 mm; in assay [4] it was 28 mm; in assay [5], 26 mm; in assay [6], 24 mm; in assay [7], 26 mm. In addition, the inhibition in vivo at 10 mg/kg in assay [3] came out at 76.4%.
As to `Cc1ccc(OCc2ccccc2-c2nc(CN3CCN(C(c4ccccc4)c4ccccc4)CC3)cs2)cc1`, the zone of inhibition at 10 µg/disc in assay [1] was determined as 8 mm; in assay [2] it was 21 mm; in assay [4], 20 mm; in assay [5], 10 mm; in assay [6], 18 mm; in assay [7] it was 18 mm. Moreover, the inhibition in vivo at 10 mg/kg in assay [3] stood at 63.9%.
As for `Cc1ccccc1OCc1ccccc1-c1nc(COc2ccc(Cl)cc2)cs1`, the zone of inhibition at 10 µg/disc in assay [1] is 16 mm; in assay [2] it was 18 mm; in assay [4], 20 mm; in assay [5], 20 mm; in assay [6] it was 20 mm; in assay [7] it was 22 mm. The inhibition in vivo at 10 mg/kg in assay [3] is 65.1%.
Turning to `Cc1cccc(OCc2ccccc2-c2nc(-c3ccc(O)c(C(N)=O)c3)cs2)c1`, the zone of inhibition at 10 µg/disc was found to be 11 mm in assay [1]; 22 mm in assay [2]; 22 mm in assay [4]; 18 mm in assay [5]; 22 mm in assay [6]; 20 mm in assay [7]. Also, the inhibition in vivo at 10 mg/kg in assay [3] was determined as 42.9%.

The values are drawn from ChEMBL document CHEMBL3044745, “Synthesis and evaluation of biological and nonlinear optical properties of some novel 2,4-disubstituted [1,3]-thiazoles carrying 2-(aryloxymethyl)-phenyl moiety” (2013).
